Like-named read-outs stand apart in the source and are kept apart here.
Experiments:
EGFR (L858R T790M C797S) = biological target: T1, EGFR (L858R T790M C797S) (Homo sapiens, UniProt P00533, C797S/L858R/T790M); assay: Biochemical EGFR inhibition assay (Caliper mobility shift), EGFR LRTMCS mutant; settings: inhibitory activity against EGFR LRTMCS mutant; apparent IC50; read-out: Ext Enz LRTMCS
T1 construct: purchased SignalChem E10-122VG
In short: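 Each enzyme was allowed to phosphorylate 10–20% of its peptide at 25° C. before EDTA (35 mM) quench. Separated substrate and product peaks were measured by mobility shift, giving apparent IC50 values.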

[1] = system: phosphorylation of EGFR (Tyr1068) in NCI-H1975 cell line that harbors the EGFR L858R T790M mutations; assay: NCI-H1975 pEGFR AlphaLISA assay; type: cell-based; settings: 4-5 hours incubation, read-out: Ext pEGFR H1975
In short: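 Phospho-EGFR Tyr1068 AlphaLISA readout: lysates taken from compound-treated H1975 cells (L858R T790M EGFR) after a 4-5 h exposure at 37 °C. Cells had adhered overnight beforehand. IC50 derived by plotting % pEGFR inhibition against log compound concentration.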

[2] = inhibition of phosphorylation of mutant EGFR in NCI-H1975 cells
[3] = Homo sapiens, NCI-H1975, inhibition of phosphorylation of mutant EGFR in NCI-H1975 cells

| Molecule | IC50 (EGFR (L858R T790M C797S)) [nM] | IC50 [1, 2] [nM] | IC50 [1, 3] [nM] |
| --- | --- | --- | --- |
| CO[C@@H]1[C@H](F)CN(c2nccc(Nc3cc4c(C(C)C)ccc(N5C[C@H](CS(C)(=O)=O)[C@H]5C)c4cn3)n2)C[C@@H]1O (single isomer, unassigned) [Compound 203, (3R,4R,5S)-5-fluoro-1-[4-({8-[(2R,3S)-3-(methanesulfonylmethyl)-2-methylazetidin-1-yl]-5-(propan-2-yl)isoquinolin-3-yl}amino)pyrimidin-2-yl]-4-methoxypiperidin-3-ol or (3S,4S,5R)-5-fluoro-1-[4-({8-[(2R,3S)-3-(methanesulfonylmethyl)-2-methylazetidin-1-yl]-5-(propan-2-yl)isoquinolin-3-yl}amino)pyrimidin-2-yl]-4-methoxypiperidin-3-ol] | 15.1 to 20 | ≤ 10 | – |
| CCS(=O)(=O)CC1CN(c2ccc(C(C)C)c3cc(Nc4ccnc(N5CC[C@@H](OC)[C@@H](O)C5)n4)ncc23)C1 (single isomer, unassigned) [Compound 91, (3S,4R)-1-{4-[(8-{3-[(ethanesulfonyl)methyl]azetidin-1-yl}-5-(propan-2-yl)isoquinolin-3-yl)amino]pyrimidin-2-yl}-4-methoxypiperidin-3-ol or (3R,4S)-1-{4-[(8-{3-[(ethanesulfonyl)methyl]azetidin-1-yl}-5-(propan-2-yl)isoquinolin-3-yl)amino]pyrimidin-2-yl}-4-methoxypiperidin-3-ol] | ≤ 15 | – | ≤ 10 |
| CO[C@]1(C)CN(c2nccc(Nc3cc4c(C(C)C)ccc(N5CC(CS(C)(=O)=O)C5)c4cn3)n2)CC[C@@H]1O (single isomer, unassigned) [Compound 95, (3S,4R)-1-[4-({8-[3-(methanesulfonylmethyl)azetidin-1-yl]-5-(propan-2-yl)isoquinolin-3-yl}amino)pyrimidin-2-yl]-3-methoxy-3-methylpiperidin-4-ol or (3R,4S)-1-[4-({8-[3-(methanesulfonylmethyl)azetidin-1-yl]-5-(propan-2-yl)isoquinolin-3-yl}amino)pyrimidin-2-yl]-3-methoxy-3-methylpiperidin-4-ol] | 20.1 to 30 | 10.1 to 20 | – |
| CC(C)c1ccc(N2C[C@H](CS(C)(=O)=O)[C@H]2C)c2cnc(Nc3ccnc(N4CC[C@@H](OCC(C)(C)O)[C@@H](F)C4)n3)cc12 [Compound 256, 1-{[(3S,4R)-3-fluoro-1-[4-({8-[(2R,3S)-3-(methanesulfonylmethyl)-2-methylazetidin-1-yl]-5-(propan-2-yl)isoquinolin-3-yl}amino)pyrimidin-2-yl]piperidin-4-yl]oxy}-2-methylpropan-2-ol] | 20.1 to 30 | – | ≤ 10 |
| CC(C)c1ccc(N2C[C@@H](CS(C)(=O)=O)[C@@H]2C)c2cnc(Nc3ccnc(N4CC[C@@H]5C[C@H]4CO5)n3)cc12 (single isomer, unassigned) [Compound 41, N-(2-((1S,5R)-6-oxa-2-azabicyclo[3.2.1]octan-2-yl)pyrimidin-4-yl)-5-isopropyl-8-((2S,3R)-2-methyl-3-((methylsulfonyl)methyl)azetidin-1-yl)isoquinolin-3-amine or N-(2-((1R,5S)-6-oxa-2-azabicyclo[3.2.1]octan-2-yl)pyrimidin-4-yl)-5-isopropyl-8-((2S,3R)-2-methyl-3-((methylsulfonyl)methyl)azetidin-1-yl)isoquinolin-3-amine] | ≤ 15 | – | ≤ 10 |
| CCS(=O)(=O)CC1CN(c2ccc(C(C)C)c3cc(Nc4ccnc(N5CC[C@@H](OC)[C@@H](F)C5)n4)ncc23)C1 [Compound 261, 8-{3-[(ethanesulfonyl)methyl]azetidin-1-yl}-N-{2-[(3S,4R)-3-fluoro-4-methoxypiperidin-1-yl]pyrimidin-4-yl}-5-(propan-2-yl)isoquinolin-3-amine] | ≤ 15 | – | ≤ 10 |
| CO[C@@H]1[C@H](F)CN(c2nccc(Nc3cc4c(C(C)C)ccc(N5C[C@H](CS(C)(=O)=O)[C@H]5C)c4cn3)n2)C[C@@H]1O (single isomer, unassigned) [Compound 202, (3S,4S,5R)-5-fluoro-1-[4-({8-[(2R,3S)-3-(methanesulfonylmethyl)-2-methylazetidin-1-yl]-5-(propan-2-yl)isoquinolin-3-yl}amino)pyrimidin-2-yl]-4-methoxypiperidin-3-ol or (3R,4R,5S)-5-fluoro-1-[4-({8-[(2R,3S)-3-(methanesulfonylmethyl)-2-methylazetidin-1-yl]-5-(propan-2-yl)isoquinolin-3-yl}amino)pyrimidin-2-yl]-4-methoxypiperidin-3-ol] | 20.1 to 30 | – | 10.1 to 20 |
| CC(C)c1ccc(N2CC(CS(C)(=O)=O)C2)c2cnc(Nc3ccnc(N4CCC(C)(O)CC4)n3)cc12 [Compound 17, 1-[4-({8-[3-(methanesulfonylmethyl)azetidin-1-yl]-5-(propan-2-yl)isoquinolin-3-yl}amino)pyrimidin-2-yl]-4-methylpiperidin-4-ol] | ≤ 15 | – | 10.1 to 20 |
| (S)-ethyl({1-[3-({2-[(3S,4R)-3-fluoro-4-methoxypiperidin-1-yl]pyrimidin-4-yl}amino)-5-(propan-2-yl)isoquinolin-8-yl]azetidin-3-yl}methyl)imino-λ^6-sulfanone or (R)-ethyl({1-[3-({2-[(3S,4R)-3-fluoro-4-methoxypiperidin-1-yl]pyrimidin-4-yl}amino)-5-(propan-2-yl)isoquinolin-8-yl]azetidin-3-yl}methyl)imino-λ^6-sulfanone [Compound 273] | ≤ 15 | 20.1 to 30 | – |
| CC(C)c1ccc(N2CC(CS(C)(=O)=O)C2)c2cnc(Nc3ccnc(N4CC[C@](C)(O)C[C@@H]4C)n3)cc12 (single isomer, unassigned) [Compound 45, (2S,4S)-1-[4-({8-[3-(methanesulfonylmethyl)azetidin-1-yl]-5-(propan-2-yl)isoquinolin-3-yl}amino)pyrimidin-2-yl]-2,4-dimethylpiperidin-4-ol or (2R,4R)-1-[4-({8-[3-(methanesulfonylmethyl)azetidin-1-yl]-5-(propan-2-yl)isoquinolin-3-yl}amino)pyrimidin-2-yl]-2,4-dimethylpiperidin-4-ol] | ≤ 15 | 10.1 to 20 | – |
| CCS(=O)(=O)C[C@H]1CN(c2ccc(C(C)C)c3cc(Nc4ccnc(N5CC[C@@](C)(O)[C@@H](F)C5)n4)ncc23)[C@@H]1C (single isomer, unassigned) [Compound 186] | ≤ 15 | – | ≤ 10 |
| CC(C)c1ccc(N2C[C@H](CS(C)(=O)=O)[C@H]2C)c2cnc(Nc3ccnc(N4CC[C@H](N)C(F)(F)C4)n3)cc12 (single isomer, unassigned) [Compound 151, N-{2-[(4S)-4-amino-3,3-difluoropiperidin-1-yl]pyrimidin-4-yl}-8-[(2R,3S)-3-(methanesulfonylmethyl)-2-methylazetidin-1-yl]-5-(propan-2-yl)isoquinolin-3-amine or N-{2-[(4R)-4-amino-3,3-difluoropiperidin-1-yl]pyrimidin-4-yl}-8-[(2R,3S)-3-(methanesulfonylmethyl)-2-methylazetidin-1-yl]-5-(propan-2-yl)isoquinolin-3-amine] | ≤ 15 | – | ≤ 10 |
| CC(C)c1ccc(N2CC(CS(C)(=O)=O)C2)c2cnc(Nc3ccnc(N4CC[C@@](C)(O)[C@@H](F)C4)n3)cc12 (single isomer, unassigned) [Compound 56] | ≤ 15 | – | 10.1 to 20 |
| CN[C@H]1CCN(c2nccc(Nc3cc4c(C(C)C)ccc(N5C[C@H](CS(C)(=O)=O)[C@H]5C)c4cn3)n2)CC1(F)F (single isomer, unassigned) [Compound 310, N-{2-[(4R)-3,3-difluoro-4-(methylamino)piperidin-1-yl]pyrimidin-4-yl}-8-[(2R,3S)-3-(methanesulfonylmethyl)-2-methylazetidin-1-yl]-5-(propan-2-yl)isoquinolin-3-amine or N-{2-[(4S)-3,3-difluoro-4(methylamino)piperidin-1-yl]pyrimidin-4-yl}-8-[(2R,3S)-3-(methanesulfonylmethyl)-2-methylazetidin-1-yl]-5-(propan-2-yl)isoquinolin-3-amine] | ≤ 15 | ≤ 10 | – |
| CC(C)c1ccc(N2C[C@H](CS(C)(=O)=O)[C@H]2C)c2cnc(Nc3ccnc(N4CC[C@@H](OC[C@H](C)O)[C@@H](F)C4)n3)cc12 (single isomer, unassigned) [Compound 248, (2R)-1-{[(3S,4R)-3-fluoro-1-[4-({8-[(2R,3S)-3-(methanesulfonylmethyl)-2-methylazetidin-1-yl]-5-(propan-2-yl)isoquinolin-3-yl}amino)pyrimidin-2-yl]piperidin-4-yl]oxy}propan-2-ol or (2S)-1-{[(3S,4R)-3-fluoro-1-[4-({8-[(2R,3S)-3-(methanesulfonylmethyl)-2-methylazetidin-1-yl]-5-(propan-2-yl)isoquinolin-3-yl}amino)pyrimidin-2-yl]piperidin-4-yl]oxy}propan-2-ol] | ≤ 15 | ≤ 10 | – |
| CCc1cnc(N2CC(CS(C)(=O)=O)C2)c2cnc(Nc3ccnc(N4CC[C@@H](O)[C@@](C)(F)C4)n3)cc12 (single isomer, unassigned) [Compound 31] | ≤ 15 | – | 10.1 to 20 |
